Data: patent publication US20120220554A1, “Combretastatins for Prevention of Posterior Capsule Opacification” (OXIGENE, INC., priority 2010, published 2012)

Tested on: polymerized tubulin in BMI-immortalized bovine lens epithelial (BIE) cells
Test: Dimer/polymer tubulin extraction and anti-tubulin western blot in BIE cells
Format: cell-based
Conditions: single 30 min treatment with 1 μM CA4P, at 30 min after start and up to 24 h after end of exposure (FIG. 4)
Description: BMI-immortalized bovine lens epithelial (BIE) cells, on plastic, and primary bovine lens epithelial cells, on their original in vivo basement membrane, (the eye lens capsule), were cultured in 10% fetal calf serum (FCS)-supplemented medium at 37° C. prior to 30 min exposure to 1 μM CA4P, after which they were returned to 10% FCS-supplemented medium. The relatively short exposure was chosen to approximate the duration of a cataract surgery procedure. At a range of time points following exposure, cells were subjected to cell viability assay (MTT-based assay, PROMEGA, UK), immunoblotting or immunofluorescence.
BMI-immortalized bovine lens epithelial cells (BIE cell line, produced in Roy Quinlan's Laboratory, University of Durham, UK), were grown at 37° C., 5% CO2, in 10 cm diameter Petri dishes in 10% fetal calf serum (FCS)-supplemented tissue culture medium (Sigma-Aldrich, UK). When nearing confluence, they were exposed to 1 μM combretastatin A 4-phosphate (CA4P) (OXiGENE, UK) diluted in 10% FCS-supplemented medium for 30 min, after which the cells were returned to 10% FCS-supplemented medium. Immediately after the end of CA4P exposure, cells were extracted to assess the proportion of dimer/polymer tubulin, as described in Lieuvin et al., 1994 (J. Cell Biology 124 (6):985-996). […]
The proportion of dimer/polymer tubulin was assessed by western blotting. […]

COc1ccc(/C=C\c2cc(OC)c(OC)c(OC)c2)cc1OP(=O)(O)O [CA4P, combretastatin A-4 phosphate]
polymerized tubulin (western blot): loss of polymerized tubulin
